Assay results published in patent US8455475B2 (Gruenenthal GmbH, priority 2009, dated 2013).

Target: T1, rat B1R (bradykinin receptor 1) (Rattus norvegicus, UniProt P97583)
T1 construct: expressed in transfected cells; host or cells: CHO K1 cells
T1 sequence (P97583 1-337): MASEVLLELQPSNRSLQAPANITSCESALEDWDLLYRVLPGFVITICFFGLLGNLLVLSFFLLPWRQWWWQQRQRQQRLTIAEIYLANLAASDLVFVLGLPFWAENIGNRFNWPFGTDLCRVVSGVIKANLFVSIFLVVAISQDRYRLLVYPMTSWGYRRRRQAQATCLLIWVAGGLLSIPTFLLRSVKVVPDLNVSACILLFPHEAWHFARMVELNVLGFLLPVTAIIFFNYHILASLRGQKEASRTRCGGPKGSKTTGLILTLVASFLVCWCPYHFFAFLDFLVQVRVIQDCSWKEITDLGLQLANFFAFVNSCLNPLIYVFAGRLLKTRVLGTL
Assay: FLIPR Ca2+ assay (Fluo-4) on CHO K1 cells stably transfected with the B1R gene of the rat (rB1R cells): % inhibition at 10 μM / IC50, agonist Des-Arg9-bradykinin
Assay type: cell-based
Conditions: CHO-K1, rat B1R
Method: The agonistic or antagonistic action of substances can be quantified on the bradykinin receptor 1 (B1R) of the human and rat species with ectopically expressing cell lines (CHO K1 cells) and with the aid of a Ca^2+-sensitive dyestuff (Fluo-4) in a fluorescent imaging plate reader (FLIPR). The figure in % activation is based on the Ca^2+ signal after addition of Lys-Des-Arg^9-bradykinin (0.5 nM) or Des-Arg^9-bradykinin (100 nM). Antagonists lead to a suppression of the Ca^2+ inflow after addition of the agonist. % inhibition compared with the maximum achievable inhibition is stated.
The agonistic or antagonistic action of substances can be determined on the bradykinin receptor 1 (B1R) of the human and rat species with the following assay. In accordance with this assay, the Ca^2+ inflow through the channel is quantified with the aid of a Ca^2+-sensitive dyestuff (type Fluo-4, Molecular Probes Europe BV, Leiden, Holland) in a fluorescent imaging plate reader (FLIPR, Molecular Devices, Sunnyvale, USA).
Chinese hamster ovary cells (CHO K1 cells) transfected stably with the human B1R gene (hB1R cells) or the B1R gene of the rat (rB1R cells) are used. For functional studies, these cells are plated out on black 96-well plates with a clear base (BD Biosciences, Heidelberg, Germany or Greiner, Frickenhausen, Germany) in a density of 20,000-35,000 cells/well. The cells are left overnight at 37° C. and 5% CO2 in culture medium (hB1R cells: Nutrient Mixture Ham's F12, Gibco Invitrogen GmbH, Karlsruhe, Germany or DMEM, Sigma-Aldrich, Taufkirchen, Germany; rB1R cells: D-MEM/F12, Gibco Invitrogen GmbH, Karlsruhe, Germany) with 10 vol. % FBS (foetal bovine serum, Gibco Invitrogen GmbH, Karlsruhe, Germany or PAN Biotech GmbH, Aidenbach, Germany). On the following day, the cells are loaded for 60 min at 37° C. with 2.13 μM Fluo-4 (Molecular Probes Europe BV, Leiden Holland) in HBSS buffer (Hank's buffered saline solution, Gibco Invitrogen GmbH, Karlsruhe, Germany) with 2.5 mM probenecid (Sigma-Aldrich, Taufkirchen, Germany) and 10 mM HEPES (Sigma-Aldrich, Taufkirchen, Germany). The plates are then washed 2× with HBSS buffer, and HBSS buffer which additionally contains 0.1% BSA (bovine serum albumin; Sigma-Aldrich, Taufkirchen, Germany), 5.6 mM glucose and 0.05% gelatine (Merck KGaA, Darmstadt, Germany) is added. After a further incubation of 20 minutes at room temperature, the plates are inserted into the FLIPR for the Ca^2+ measurement. Alternatively, the plates are washed with buffer A (15 mM HEPES, 80 mM NaCl, 5 mM KCl, 1.2 mM CaCl2, 0.7 mM MgSO4, 2 g/l glucose, 2.5 mM probenecid), buffer A is added and the plates are loaded with 2.5 μM Fluo-4 and 0.025% Pluronic F127 (Sigma-Aldrich, Taufkirchen, Germany). Thereafter, the cells are washed 2× with buffer A and incubated for 30 minutes at room temperature with buffer A, which additionally contains 0.05% BSA and 0.05% gelatine, and thereafter inserted into the FLIPR for the Ca^2+ measurement. The Ca^2+-dependent fluorescence is measured here before and after addition of substances (λex=488 nm, λem=540 nm). Quantification is by measurement of the highest fluorescence intensity (FC, fluorescence counts) over time.
The FLIPR protocol consists of 2 additions of substance. Test substances (10 μM) are first pipetted on to the cells and the Ca^2+ inflow is compared with the control (hB1R: Lys-Des-Arg^9-bradykinin>=50 nM; rB1R: Des-Arg^9-bradykinin 10 μM). This gives the result in % activation based on the Ca^2+ signal after addition of Lys-Des-Arg^9-bradykinin (>=50 nM) or Des-Arg^9-bradykinin (10 μM). After incubation for 10-20 minutes, Lys-Des-Arg^9-bradykinin (hB1R) or Des-Arg^9-bradykinin (rB1R) in the concentration of the EC80 is applied and the inflow of Ca^2+ is likewise determined. Antagonists lead to a suppression of the Ca^2+ inflow. % inhibition compared with the maximum achievable inhibition is calculated.
For determination of the IC50 value, the substances are added in various concentrations. […]

SMILES: CC1(C)Cc2ccc(C(=O)N3CCC4(CC3)CCN(c3ccncc3)CC4)cc2C1NC(=O)c1cc(Cl)ccc1C(F)(F)F (stereo not drawn) [IND_CC-314, 5-Chloro-N-[2,2-dimethyl-6-(9-pyridin-4-yl-3,9-diazaspiro[5.5]undecane-3-carbonyl)-1,3-dihydro-inden-1-yl]-2-(trifluoromethyl)-benzamide]
- inhibition at 10 µM: 80%

SMILES: CC1(C)CC(NC(=O)c2cc(Cl)ccc2C(F)(F)F)c2cc(C(=O)N3CCC4(CC3)CCN(c3ccncc3)CC4)ccc21 (stereo not drawn) [IND_CC-315, 5-Chloro-N-[3,3-dimethyl-6-(3-pyridin-4-yl-3,9-diazaspiro[5.5]undecane-9-carbonyl)-1,2-dihydro-inden-1-yl]-2-(trifluoromethyl)-benzamide]
- inhibition at 10 µM: 101%

SMILES: O=C(NC1CCc2ccc(C(=O)N3CCC4(CCN(c5ccncc5)CC4)C3)cc21)c1cc(Cl)ccc1C(F)(F)F (stereo not drawn) [IND_CC-316, 5-Chloro-N-[6-(8-pyridin-4-yl-2,8-diazaspiro[4.5]decane-2-carbonyl)-2,3-dihydro-1H-inden-1-yl]-2-(trifluoromethyl)-benzamide]
- inhibition at 10 µM: 100%

SMILES: Cc1ccc(C(=O)NC2c3cc(C(=O)N4CCC5(CC4)CCN(c4ccncc4)CC5)ccc3CC2(C)C)c(F)c1 (stereo not drawn) [IND_CC-317, N-[2,2-Dimethyl-6-(9-pyridin-4-yl-3,9-diazaspiro[5.5]undecane-3-carbonyl)-1,3-dihydro-inden-1-yl]-2-fluoro-4-methyl-benzamide]
- inhibition at 10 µM: 60%

SMILES: Cc1ccc(C(=O)NC2CC(C)(C)c3ccc(C(=O)N4CCC5(CC4)CCN(c4ccncc4)CC5)cc32)c(F)c1 (stereo not drawn) [IND_CC-318, N-[3,3-Dimethyl-6-(3-pyridin-4-yl-3,9-diazaspiro[5.5]undecane-9-carbonyl)-1,2-dihydro-inden-1-yl]-2-fluoro-4-methyl-benzamide]
- inhibition at 10 µM: 100%

SMILES: Cc1ccc(C(=O)NC2CCc3ccc(C(=O)N4CCC5(CCN(c6ccncc6)CC5)C4)cc32)c(F)c1 (stereo not drawn) [IND_CC-319, 2-Fluoro-4-methyl-N-[6-(8-pyridin-4-yl-2,8-diazaspiro[4.5]decane-2-carbonyl)-2,3-dihydro-1H-inden-1-yl]-benzamide]
- inhibition at 10 µM: 102%

SMILES: CN(C1CCc2ccc(C(=O)N3CCC4(CC3)CCN(c3ccncc3)CC4)cc21)S(=O)(=O)c1ccc(C(F)(F)F)cc1Cl (stereo not drawn) [IND_CC-320, 2-Chloro-N-methyl-N-[6-(9-pyridin-4-yl-3,9-diazaspiro[5.5]undecane-3-carbonyl)-2,3-dihydro-1H-inden-1-yl]-4-(trifluoromethyl)-benzenesulfonic acid amide]
- inhibition at 10 µM: 83%

SMILES: CN(C1CCc2ccc(C(=O)N3CCC4(CC3)CCN(c3ccncc3)CC4)cc21)S(=O)(=O)c1c(Cl)cccc1Cl (stereo not drawn) [IND_CC-321, 2,6-Dichloro-N-methyl-N-[6-(9-pyridin-4-yl-3,9-diazaspiro[5.5]undecane-3-carbonyl)-2,3-dihydro-1H-inden-1-yl]-benzenesulfonic acid amide]
- inhibition at 10 µM: 95%

SMILES: O=C(c1ccc2c(c1)C(NS(=O)(=O)c1c(Cl)cccc1Cl)CC2)N1CCC2(CC1)CCN(c1ccncc1)CC2 (stereo not drawn) [IND_CC-322, 2,6-Dichloro-N-[6-(9-pyridin-4-yl-3,9-diazaspiro[5.5]undecane-3-carbonyl)-2,3-dihydro-1H-inden-1-yl]-benzenesulfonic acid amide]
- inhibition at 10 µM: 102%

SMILES: O=C(c1ccc2c(c1)C(NS(=O)(=O)c1c(Cl)cccc1Cl)CC2)N1CCC2(CC1)CCN(c1ccncc1)C2 (stereo not drawn) [IND_CC-323, 2,6-Dichloro-N-[6-(2-pyridin-4-yl-2,8-diazaspiro[4.5]decane-8-carbonyl)-2,3-dihydro-1H-inden-1-yl]-benzenesulfonic acid amide]
- inhibition at 10 µM: 100%

SMILES: CN(C1CCc2ccc(C(=O)N3CCC4(CC3)CCN(c3ccncc3)CC4)cc21)S(=O)(=O)c1ccc(Cl)cc1Cl (stereo not drawn) [IND_CC-324, 2,4-Dichloro-N-methyl-N-[6-(9-pyridin-4-yl-3,9-diazaspiro[5.5]undecane-3-carbonyl)-2,3-dihydro-1H-inden-1-yl]-benzenesulfonic acid amide]
- inhibition at 10 µM: 98%

SMILES: CN(C1CCc2ccc(C(=O)N3CCC4(CC3)CCN(c3ccncc3)CC4)cc21)S(=O)(=O)c1ccccc1Cl (stereo not drawn) [IND_CC-325, 2-Chloro-N-methyl-N-[6-(9-pyridin-4-yl-3,9-diazaspiro[5.5]undecane-3-carbonyl)-2,3-dihydro-1H-inden-1-yl]-benzenesulfonic acid amide]
- inhibition at 10 µM: 102%

SMILES: Cc1cc(F)ccc1S(=O)(=O)N(C)C1CCc2ccc(C(=O)N3CCC4(CC3)CCN(c3ccncc3)CC4)cc21 (stereo not drawn) [IND_CC-326, 4-Fluoro-N,2-dimethyl-N-[6-(9-pyridin-4-yl-3,9-diazaspiro[5.5]undecane-3-carbonyl)-2,3-dihydro-1H-inden-1-yl]-benzenesulfonic acid amide]
- inhibition at 10 µM: 100%

SMILES: CN(C1CCc2ccc(C(=O)N3CCC4(CC3)CCN(c3ccncc3)CC4)cc21)S(=O)(=O)c1cccc(C(F)(F)F)c1 (stereo not drawn) [IND_CC-327, N-Methyl-N-[6-(9-pyridin-4-yl-3,9-diazaspiro[5.5]undecane-3-carbonyl)-2,3-dihydro-1H-inden-1-yl]-3-(trifluoromethyl)-benzenesulfonic acid amide]
- inhibition at 10 µM: 101%

SMILES: O=C(c1ccc2c(c1)C(NS(=O)(=O)c1cccc(C(F)(F)F)c1)CC2)N1CCC2(CC1)CCN(c1ccncc1)CC2 (stereo not drawn) [IND_CC-328, N-[6-(9-Pyridin-4-yl-3,9-diazaspiro[5.5]undecane-3-carbonyl)-2,3-dihydro-1H-inden-1-yl]-3-(trifluoromethyl)-benzenesulfonic acid amide]
- inhibition at 10 µM: 98%

SMILES: O=C(c1ccc2c(c1)C(NS(=O)(=O)c1cccc(C(F)(F)F)c1)CC2)N1CCC2(CC1)CCN(c1ccncc1)C2 (stereo not drawn) [IND_CC-329, N-[6-(2-Pyridin-4-yl-2,8-diazaspiro[4.5]decane-8-carbonyl)-2,3-dihydro-1H-inden-1-yl]-3-(trifluoromethyl)-benzenesulfonic acid amide]
- inhibition at 10 µM: 97%

SMILES: CC1(C)Cc2ccc(C(=O)N3CCC4(CC3)CCN(c3ccncc3)CC4)cc2C1NS(=O)(=O)c1ccc(C(F)(F)F)cc1Cl (stereo not drawn) [IND_CC-330, 2-Chloro-N-[2,2-dimethyl-6-(9-pyridin-4-yl-3,9-diazaspiro[5.5]undecane-3-carbonyl)-1,3-dihydro-inden-1-yl]-4-(trifluoromethyl)-benzenesulfonic acid amide]
- inhibition at 10 µM: 67%

SMILES: CC1(C)CC(NS(=O)(=O)c2ccc(C(F)(F)F)cc2Cl)c2cc(C(=O)N3CCC4(CC3)CCN(c3ccncc3)CC4)ccc21 (stereo not drawn) [IND_CC-331, 2-Chloro-N-[3,3-dimethyl-6-(3-pyridin-4-yl-3,9-diazaspiro[5.5]undecane-9-carbonyl)-1,2-dihydro-inden-1-yl]-4-(trifluoromethyl)-benzenesulfonic acid amide]
- inhibition at 10 µM: 94%
